Test results as given in patent US10626112B2, “Heterocyclic sulfonamide derivative and medicine comprising same” (EA PHARMA CO., LTD., priority 2014, dated 2020).

Biological target: human TRPA1 (Homo sapiens (Human), UniProt O75762)
Test: Measurement of TRPA1 antagonist activity (1): intracellular calcium increase
Type: cell-based
Conditions: 293T cells transfected with human TRPA1 expression plasmid; allylisothiocyanate 20 μM stimulation; intracellular calcium fluorescence; read-out: hTRPA1 IC50
Summary of the method: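 HEK293T cells transiently transfected with full-length human TRPA1, loaded with Calcium4 dye in HBSS/20 mM HEPES pH 7.2. Test compound preincubated 10 min, then allylisothiocyanate added at 20 μM final and fluorescence change followed for 5 min. IC50 from sigmoid fit of percent inhibition relative to agonist and buffer controls.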

Sequence of human TRPA1 (O75762 whole entry): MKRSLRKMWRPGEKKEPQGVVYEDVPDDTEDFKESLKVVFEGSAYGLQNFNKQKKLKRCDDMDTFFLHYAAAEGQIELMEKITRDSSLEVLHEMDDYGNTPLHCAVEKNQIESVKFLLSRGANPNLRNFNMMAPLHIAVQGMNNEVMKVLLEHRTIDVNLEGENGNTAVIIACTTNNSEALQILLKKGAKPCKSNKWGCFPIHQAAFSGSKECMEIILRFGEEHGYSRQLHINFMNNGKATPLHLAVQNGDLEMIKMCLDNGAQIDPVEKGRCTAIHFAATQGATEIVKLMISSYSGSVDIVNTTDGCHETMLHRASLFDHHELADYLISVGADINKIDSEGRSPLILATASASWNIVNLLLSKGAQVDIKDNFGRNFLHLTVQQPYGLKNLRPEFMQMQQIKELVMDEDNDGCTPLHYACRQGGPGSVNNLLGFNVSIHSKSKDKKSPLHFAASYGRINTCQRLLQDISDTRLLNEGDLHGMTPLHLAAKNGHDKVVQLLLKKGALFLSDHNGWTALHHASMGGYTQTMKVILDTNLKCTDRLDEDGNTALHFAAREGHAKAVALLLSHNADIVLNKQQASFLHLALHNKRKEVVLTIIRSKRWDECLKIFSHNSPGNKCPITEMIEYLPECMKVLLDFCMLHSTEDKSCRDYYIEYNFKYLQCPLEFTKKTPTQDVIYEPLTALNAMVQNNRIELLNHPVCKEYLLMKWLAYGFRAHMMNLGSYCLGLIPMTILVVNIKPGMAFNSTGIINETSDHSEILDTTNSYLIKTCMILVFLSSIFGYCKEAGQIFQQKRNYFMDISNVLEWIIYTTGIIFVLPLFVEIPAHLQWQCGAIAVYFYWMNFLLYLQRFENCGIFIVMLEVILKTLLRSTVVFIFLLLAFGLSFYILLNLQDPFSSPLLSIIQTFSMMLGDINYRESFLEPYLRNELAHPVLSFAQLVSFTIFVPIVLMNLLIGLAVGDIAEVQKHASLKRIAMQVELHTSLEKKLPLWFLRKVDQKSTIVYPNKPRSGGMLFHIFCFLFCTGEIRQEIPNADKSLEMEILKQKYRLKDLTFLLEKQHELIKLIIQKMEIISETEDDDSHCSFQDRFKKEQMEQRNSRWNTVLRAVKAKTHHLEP

Row | IC50 | Compound
1 | 47 nM | O=C(NCc1cccc(-c2ccc(C(F)(F)F)cc2)n1)[C@@H]1CCCN1S(=O)(=O)c1cc2cc(F)ccc2o1 [Example 144, (2S)-1-(5-fluorobenzofuran-2-yl)sulfonyl-N-[[6-[4-(trifluoromethyl)phenyl]-2-pyridyl]methyl]pyrrolidine-2-carboxamide]
2 | 29 nM | O=C(NCc1cccc(-c2ccc(C(F)(F)F)nc2)n1)[C@@H]1CCCN1S(=O)(=O)c1cc2cc(F)ccc2o1 [Example 145, (2S)-1-(5-fluorobenzofuran-2-yl)sulfonyl-N-[[6-[6-(trifluoromethyl)-3-pyridyl]-2-pyridyl]methyl]pyrrolidine-2-carboxamide]
3 | 310 nM | N#Cc1ccc(-c2cccc(CNC(=O)[C@@H]3CCCN3S(=O)(=O)c3cc4cc(F)ccc4o3)n2)cc1 [Example 146, (2S)-N-[[6-(4-cyanophenyl)-2-pyridyl]methyl]-1-(5-fluorobenzofuran-2-yl)sulfonyl-pyrrolidine-2-carboxamide]
4 | 180 nM | O=C(NCc1cccc(-c2ccc(C(F)(F)F)cc2O)n1)[C@@H]1CCCN1S(=O)(=O)c1cc2cc(F)ccc2o1 [Example 147, (2S)-1-(5-fluorobenzofuran-2-yl)sulfonyl-N-[[6-[2-hydroxy-4-(trifluoromethyl)phenyl]-2-pyridyl]methyl]pyrrolidine-2-carboxamide]
5 | 2.2 nM | O=C(NCc1cc(-c2ccc(C(F)(F)F)cc2)ccn1)[C@@H]1CCCN1S(=O)(=O)c1cc2cc(F)ccc2o1 [Example 148, (2S)-1-(5-fluorobenzofuran-2-yl)sulfonyl-N-[[4-[4-(trifluoromethyl)phenyl]-2-pyridyl]methyl]pyrrolidine-2-carboxamide]
6 | 1.5 nM | O=C(NCc1cc(-c2ccc(C(F)(F)F)nc2)ccn1)[C@@H]1CCCN1S(=O)(=O)c1cc2cc(F)ccc2o1 [Example 149, (2S)-1-(5-fluorobenzofuran-2-yl)sulfonyl-N-[[4-[6-(trifluoromethyl)-3-pyridyl]-2-pyridyl]methyl]pyrrolidine-2-carboxamide]
7 | 13 nM | N#Cc1ccc(-c2ccnc(CNC(=O)[C@@H]3CCCN3S(=O)(=O)c3cc4cc(F)ccc4o3)c2)cc1 [Example 150, (2S)-N-[[4-(4-cyanophenyl)-2-pyridyl]methyl]-1-(5-fluorobenzofuran-2-yl)sulfonyl-pyrrolidine-2-carboxamide]
8 | 1.9 nM | O=C(NCc1cc(-c2ccc(C(F)(F)F)nc2)ccn1)[C@@H]1CCCN1S(=O)(=O)c1cc2ccccc2o1 [Example 151, (2S)-1-(benzofuran-2-ylsulfonyl)-N-[[4-[6-(trifluoromethyl)-3-pyridyl]-2-pyridyl]methyl]pyrrolidine-2-carboxamide]
9 | 160 nM | N#Cc1ccc(-c2ccnc(CNC(=O)[C@@H]3CCCN3S(=O)(=O)c3cc4ccccc4o3)c2)nc1 [Example 152, (2S)-1-(benzofuran-2-ylsulfonyl)-N-[[4-(5-cyano-2-pyridyl)-2-pyridyl]methyl]pyrrolidine-2-carboxamide]
10 | 5.6 nM | O=C(NCc1cc(-c2ccc(OC(F)(F)F)cc2)ccn1)[C@@H]1CCCN1S(=O)(=O)c1cc2ccccc2o1 [Example 153, (2S)-1-(benzofuran-2-ylsulfonyl)-N-[[4-[4-(trifluoromethoxy)phenyl]-2-pyridyl]methyl]pyrrolidine-2-carboxamide]
11 | 42 nM | Cn1nc(C(F)(F)F)cc1-c1ccnc(CNC(=O)[C@@H]2CCCN2S(=O)(=O)c2cc3ccccc3o2)c1 [Example 154, (2S)-1-(benzofuran-2-ylsulfonyl)-N-[[4-[2-methyl-5-(trifluoromethyl)pyrazol-3-yl]-2-pyridyl]methyl]pyrrolidine-2-carboxamide]
12 | 4 nM | O=C(NCc1cccc(-c2ccc(F)cc2)c1)[C@@H]1CCCN1S(=O)(=O)c1cc2cc(F)ccc2o1 [Example 155, (2S)-1-(5-fluorobenzofuran-2-yl)sulfonyl-N-[[3-(4-fluorophenyl)phenyl]methyl]-pyrrolidine-2-carboxamide]
13 | 2.1 nM | O=C(NCc1cccc(-c2ccc(Cl)cc2)c1)[C@@H]1CCCN1S(=O)(=O)c1cc2cc(F)ccc2o1 [Example 156, (2S)-N-[[3-(4-chlorophenyl)phenyl]methyl]-1-(5-fluorobenzofuran-2-yl)sulfonyl-pyrrolidine-2-carboxamide]
14 | 0.48 nM | O=C(NCc1cccc(-c2ccc(C(F)(F)F)cc2)c1)[C@@H]1CCCN1S(=O)(=O)c1cc2cc(F)ccc2o1 [Example 157, (2S)-1-(5-fluorobenzofuran-2-yl)sulfonyl-N-[[3-[4-(trifluoromethyl)phenyl]-phenyl]methyl]pyrrolidine-2-carboxamide]
15 | 0.83 nM | O=C(NCc1cccc(-c2ccc(OC(F)(F)F)cc2)c1)[C@@H]1CCCN1S(=O)(=O)c1cc2cc(F)ccc2o1 [Example 158, (2S)-1-(5-fluorobenzofuran-2-yl)sulfonyl-N-[[3-[4-(trifluoromethoxy)phenyl]-phenyl]methyl]pyrrolidine-2-carboxamide]
16 | 6.2 nM | CN(C)c1ccc(-c2cccc(CNC(=O)[C@@H]3CCCN3S(=O)(=O)c3cc4cc(F)ccc4o3)c2)cn1 [Example 159, (2S)-N-[[3-[6-(dimethylamino)-3-pyridyl]phenyl]methyl]-1-(5-fluorobenzofuran-2-yl)sulfonyl-pyrrolidine-2-carboxamide]

Row | IC50 | Compound
17 | 19 nM | O=C(NCc1cccc(-c2ccc(N3CCCC3)nc2)c1)[C@@H]1CCCN1S(=O)(=O)c1cc2cc(F)ccc2o1 [Example 160, (2S)-1-(5-fluorobenzofuran-2-yl)sulfonyl-N-[[3-(6-pyrrolidin-1-yl-3-pyridyl)phenyl]methyl]-pyrrolidine-2-carboxamide]
18 | 27 nM | O=C(NCc1cccc(-c2ccc(N3CCOCC3)nc2)c1)[C@@H]1CCCN1S(=O)(=O)c1cc2cc(F)ccc2o1 [Example 161, (2S)-1-(5-fluorobenzofuran-2-yl)sulfonyl-N-[[3-(6-morpholino-3-pyridyl)phenyl]methyl]-pyrrolidine-2-carboxamide]
19 | 51 nM | CNC(=O)c1ccc(-c2cccc(CNC(=O)[C@@H]3CCCN3S(=O)(=O)c3cc4cc(F)ccc4o3)c2)cn1 [Example 162, 5-[3-[[[(2S)-1-(5-fluorobenzofuran-2-yl)sulfonylpyrrolidine-2-carbonyl]amino]methyl]phenyl]-N-methyl-pyridine-2-carboxamide]
20 | 31 nM | N#Cc1cncc(-c2cccc(CNC(=O)[C@@H]3CCCN3S(=O)(=O)c3cc4cc(F)ccc4o3)c2)c1 [Example 163, (2S)-N-[[3-(5-cyano-3-pyridyl)phenyl]methyl]-1-(5-fluorobenzofuran-2-yl)sulfonyl-pyrrolidine-2-carboxamide]
21 | 190 nM | O=C(NCc1ccc(-c2ccc(C(F)(F)F)cc2)cc1)[C@@H]1CCCN1S(=O)(=O)c1cc2ccccc2o1 [Example 165, (2S)-1-(benzofuran-2-ylsulfonyl)-N-[[4-[4-(trifluoromethyl)phenyl]-phenyl]methyl]pyrrolidine-2-carboxamide]
22 | 260 nM | O=C(NCc1ccc(-c2cccc(C(F)(F)F)c2)cc1)[C@@H]1CCCN1S(=O)(=O)c1cc2ccccc2o1 [Example 166, (2S)-1-(benzofuran-2-ylsulfonyl)-N-[[4-[3-(trifluoromethyl)phenyl]-phenyl]methyl]pyrrolidine-2-carboxamide]
23 | 140 nM | O=C(NCc1ccc(-c2ccccc2C(F)(F)F)cc1)[C@@H]1CCCN1S(=O)(=O)c1cc2ccccc2o1 [Example 167, (2S)-1-(benzofuran-2-ylsulfonyl)-N-[[4-[2-(trifluoromethyl)phenyl]-phenyl]methyl]pyrrolidine-2-carboxamide]
24 | 180 nM | O=C(NCc1ccc(-c2ccc(F)cc2)cc1)[C@@H]1CCCN1S(=O)(=O)c1cc2ccccc2o1 [Example 168, (2S)-1-(benzofuran-2-ylsulfonyl)-N-[[4-(4-fluorophenyl)phenyl]methyl]-pyrrolidine-2-carboxamide]
25 | 150 nM | O=C(NCc1ccc(-c2cccc(F)c2)cc1)[C@@H]1CCCN1S(=O)(=O)c1cc2ccccc2o1 [Example 169, (2S)-1-(benzofuran-2-ylsulfonyl)-N-[[4-(3-fluorophenyl)phenyl]methyl]-pyrrolidine-2-carboxamide]
26 | 230 nM | N#Cc1ccc(-c2ccc(CNC(=O)[C@@H]3CCCN3S(=O)(=O)c3cc4ccccc4o3)cc2)cc1 [Example 170, (2S)-1-(benzofuran-2-ylsulfonyl)-N-[[4-(4-cyanophenyl)phenyl]methyl]-pyrrolidine-2-carboxamide]
27 | 510 nM | N#Cc1cccc(-c2ccc(CNC(=O)[C@@H]3CCCN3S(=O)(=O)c3cc4ccccc4o3)cc2)c1 [Example 171, (2S)-1-(benzofuran-2-ylsulfonyl)-N-[[4-(3-cyanophenyl)phenyl]methyl]-pyrrolidine-2-carboxamide]
28 | 11 nM | CN(C)c1ccc(-c2ccc(F)c(CNC(=O)[C@@H]3CCCN3S(=O)(=O)c3cc4ccccc4o3)c2)cn1 [Example 172, (2S)-1-(benzofuran-2-ylsulfonyl)-N-[[5-[6-(dimethylamino)-3-pyridyl]-2-fluoro-phenyl]methyl]pyrrolidine-2-carboxamide]
29 | 17 nM | O=C(NCc1cc(-c2cnc(C3CC3)nc2)ccc1F)[C@@H]1CCCN1S(=O)(=O)c1cc2ccccc2o1 [Example 173, (2S)-1-(benzofuran-2-ylsulfonyl)-N-[[5-(2-cyclopropylpyrimidin-5-yl)-2-fluoro-phenyl]methyl]pyrrolidine-2-carboxamide]
30 | 29 nM | CN(C)c1ncc(-c2ccc(F)c(CNC(=O)[C@@H]3CCCN3S(=O)(=O)c3cc4ccccc4o3)c2)cn1 [Example 174, (2S)-1-(benzofuran-2-ylsulfonyl)-N-[[5-[2-(dimethylamino)pyrimidin-5-yl]-2-fluoro-phenyl]methyl]pyrrolidine-2-carboxamide]
31 | 13 nM | CN(C(=O)OC(C)(C)C)c1ccc(-c2ccc(F)c(CNC(=O)C3CCCN3S(=O)(=O)c3cc4ccccc4o3)c2)cn1 [Example 175, tert-butyl N-[5-[3-[[[(2S)-1-benzofuran-2-ylsulfonyl)pyrrolidine-2-carbonyl]amino]methyl]-4-fluoro-phenyl]-2-pyridyl]-N-methylcarbamate]
